From ChEMBL document CHEMBL4706731, “Semisynthetic Derivatives of the Verticillin Class of Natural Products through Acylation of the C11 Hydroxy Group” (ACS Med Chem Lett, 2021)

Columns and labels:
Format in all cases: functional, cell-based
MDA-MB-231 = assay: Cytotoxicity against human MDA-MB-231 cells assessed as inhibition of cell proliferation measured after 72 hrs by CellTiter 96 AQueous One Solution Cell Proliferation assay; details: MDA-MB-231, 72 h
MDA-MB-435 = assay: Cytotoxicity against human MDA-MB-435 cells assessed as inhibition of cell proliferation measured after 72 hrs by CellTiter 96 AQueous One Solution Cell Proliferation assay; details: MDA-MB-435, 72 h
OVCAR-3 = assay: Cytotoxicity against human OVCAR-3 cells assessed as inhibition of cell proliferation measured after 72 hrs by CellTiter 96 AQueous One Solution Cell Proliferation assay; details: OVCAR-3, 72 h

Row | Structure (SMILES) | IC50 (MDA-MB-231) | IC50 (MDA-MB-435) | IC50 (OVCAR-3)
1 | CC(=O)O[C@H]1C(=O)[C@@]2(C)[C@H]([C@H](OC(=O)c3ccccc3)[C@]3(O)C[C@H](OC(=O)[C@H](O)[C@@H](NC(=O)c4ccccc4)c4ccccc4)C(C)=C1C3(C)C)[C@]1(OC(C)=O)CO[C@@H]1C[C@@H]2O [PACLITAXEL] | 0.6 nM | 0.3 nM | 1.8 nM
2 | CC[C@@]12SS[C@]3(C(=O)N1C)[C@@H](O)[C@]1([C@@]45c6ccccc6N[C@@H]4N4C(=O)[C@]6(CC)SS[C@]4(C(=O)N6C)[C@H]5OC(=O)CCC(=O)O)c4ccccc4N[C@@H]1N3C2=O | 13 nM | 21 nM | 133 nM
3 | CC[C@@]12SS[C@]3(C(=O)N1C)[C@@H](O)[C@]1([C@@]45c6ccccc6N[C@@H]4N4C(=O)[C@]6(CC)SS[C@]4(C(=O)N6C)[C@H]5OC(=O)N(C)C)c4ccccc4N[C@@H]1N3C2=O | 12 nM | 9 nM | 19 nM
4 | CN1C(=O)[C@]23SS[C@@]1(C)C(=O)N2[C@H]1Nc2ccccc2[C@@]1([C@@]12c4ccccc4N[C@@H]1N1C(=O)[C@]4(C)SS[C@]1(C(=O)N4C)[C@H]2OC(=O)CCC(=O)O)[C@@H]3O | 12 nM | 9 nM | 33 nM
5 | CC[C@@]12SS[C@]3(C(=O)N1C)[C@@H](O)[C@]1([C@@]45c6ccccc6N[C@@H]4N4C(=O)[C@]6(CC)SS[C@]4(C(=O)N6C)[C@H]5OC(=O)NC)c4ccccc4N[C@@H]1N3C2=O | 21 nM | 22 nM | 68 nM
6 | CC[C@@]12SS[C@]3(C(=O)N1C)[C@@H](O)[C@]1([C@@]45c6ccccc6N[C@@H]4N4C(=O)[C@]6(CC)SS[C@]4(C(=O)N6C)[C@H]5O)c4ccccc4N[C@@H]1N3C2=O | 31 nM | 44 nM | 229 nM
7 | CC[C@@]12SS[C@]3(C(=O)N1C)[C@@H](O)[C@]1([C@@]45c6ccccc6N[C@@H]4N4C(=O)[C@]6(CC)SS[C@]4(C(=O)N6C)[C@H]5OC(=O)C4CC4)c4ccccc4N[C@@H]1N3C2=O | 12 nM | 24 nM | 105 nM
8 | CC[C@@]12SS[C@]3(C(=O)N1C)[C@@H](O)[C@]1([C@@]45c6ccccc6N[C@@H]4N4C(=O)[C@]6(CC)SS[C@]4(C(=O)N6C)[C@H]5OC(=O)C(C)(C)C)c4ccccc4N[C@@H]1N3C2=O | 20 nM | 21 nM | 72 nM
9 | CN1C(=O)[C@]23SS[C@@]1(C)C(=O)N2[C@H]1Nc2ccccc2[C@@]1([C@@]12c4ccccc4N[C@@H]1N1C(=O)[C@]4(C)SS[C@]1(C(=O)N4C)[C@H]2O)[C@@H]3O | 23 nM | 18 nM | 36 nM
10 | CCCC(=O)O[C@H]1[C@]2([C@@]34c5ccccc5N[C@@H]3N3C(=O)[C@]5(CC)SS[C@]3(C(=O)N5C)[C@H]4O)c3ccccc3N[C@@H]2N2C(=O)[C@]3(CC)SS[C@]12C(=O)N3C | 17 nM | 19 nM | 25 nM
11 | CC[C@@]12SS[C@]3(C(=O)N1C)[C@@H](O)[C@]1([C@@]45c6ccccc6N[C@@H]4N4C(=O)[C@]6(CC)SS[C@]4(C(=O)N6C)[C@H]5OS(=O)(=O)c4ccc(F)cc4)c4ccccc4N[C@@H]1N3C2=O | 49 nM | 31 nM | 79 nM
12 | CCOC(=O)O[C@H]1[C@]2([C@@]34c5ccccc5N[C@@H]3N3C(=O)[C@]5(CC)SS[C@]3(C(=O)N5C)[C@H]4O)c3ccccc3N[C@@H]2N2C(=O)[C@]3(CC)SS[C@]12C(=O)N3C | 7 nM | 11 nM | 137 nM
13 | CC[C@@]12SS[C@]3(C(=O)N1C)[C@@H](O)[C@]1([C@@]45c6ccccc6N[C@@H]4N4C(=O)[C@]6(CC)SS[C@]4(C(=O)N6C)[C@H]5OC(C)=O)c4ccccc4N[C@@H]1N3C2=O | 21 nM | 41 nM | 96 nM
